[invAb] = inverted abasic unit; m = 2'-O-methyl; r = 2'-OH (RNA); f = 2'-fluoro
Tests used:
[1] = system: collagen secretion (PICP) by HLF cells; assay: Pro-collagen Type I C-terminal Pro-peptide (PICP) MSD assay, collagen secretion by HLF cells; assay type: cell-based, human; settings: TGF-β1 treated, vs universal control siNA, FIG. 13
Protocol: A Pro-collagen Type I C-terminal Pro-peptide (PICP) MSD assay was done on HLF cells transfected with siNAs and treated with TGF-β1. Supernatant from the HLF cells transfected with siNAs and treated with TGF-β1, was removed 72 hours after transfection and 48 hours after treatment. Plates and reagents (except antibodies) were purchased from Meso Scale Discovery. High bind, small spot 96 well MSD plates were spotted with 20 ng/well of the capture antibody (pro-collagen type I C-terminal pro-peptide, human PICP, Caltag Medsystmes) using a TTP LabTech Mosquito. Plates were left to dry for 48 hours before use. The MSD assay was performed as outlined: Plates were blocked with 30 mg/ml Blocker A, sealed and then shook on a plate shaker for 1 hour at RT. Plates were washed 3× with MSD Tris wash buffer. 25 μl of the supernatants were added for 1 hour on a plate shaker, plates were washed as before. The detection antibody (Anti-pro-collagen type I C-terminal pro-peptide, human PICP, Caltag Medsystmes Ltd) was diluted to 800 ng/ml in 10 mg/ml blocker A solution. This antibody had previously been Sulfo-Tagged using Sulfo-Tag NHS Ester (MSD) according to manufacturer's instructions. 25 μl of the diluted sulfo-tagged detection antibody was added, and left as before on a plate shaker for 1 hour. […] 150 μl of 1× Read buffer T was added per well, and the plates read on the MSD sector reader. […]

[2] = system: α-SMA mRNA; assay: Inhibition of α-SMA mRNA induction by TGF-β1 in HLF cells; assay type: cell-based, human; settings: for Inhibition of upregulation of α-SMA mRNA by TGF-β1: 10 nM siNA, FIG. 12
Protocol: A549 cells (ECACC, 86012804) were maintained in Dulbecco's Modified Eagle Medium (DMEM) containing 10% Fetal Calf Serum (FCS), 2 mM L-glutamine, 100 U/ml penicillin and 100 μg/ml streptomycin (all from GIBCO). Sub-confluent cultures (2.7×10^3 cells/cm^2) were seeded in collagen-coated multi-well plates (Becton Dickenson) and grown for three days. Cells were quiesced using the same medium containing 0.5% FCS, for 24 hours prior to stimulation with cytokines. Cells were incubated with 0-10 ng/ml TGF-(31 for the periods indicated. Normal Human Lung Fibroblasts (HLFs) were obtained from Lonza and maintained in Fibroblast Growth Medium supplemented with growth factors (Lonza #CC-3132); final serum concentration of medium was 2%. HLFs were treated with cytokines in serum-free medium. Normal Human Bronchial Epithelial cells (NHBEs, also obtained from Lonza) were maintained and transfected in Lonza BEBM with SingleQuots (Lonza #CC-3170). All growth factors from the kit were added, except retinoic acid. All cultures were maintained at 37° C. in a humidified incubator with 5% CO2 atmosphere.
Cells were harvested at time points appropriate for the experiment. Supernatants were removed and stored at −70° C. until analysis. Cells were washed using Dulbecco's Phosphate Buffered Saline (DPBS, GIBCO), prior to lysis. RNA lysates for Taqman analysis were produced using Promega RNA lysis buffer. All lysates were stored at −70° C. until use.
Cells were seeded on 96-well tissue culture plates (A549s and NHBEs, collagen-coated plates at densities of 5×10^3 and 1.2×10^4 respectively; HLFs on flat-bottom tissue culture plates, at 1×10^4 cells per well) in 100 μl of growth medium. […] Knockdown is calculated compared to CTGF expression of cells transfected with the universal control siNA.
RNA was isolated using a Biomek 2000 robot and Promega SV 96 Total RNA Isolation kits. cDNA was synthesised using a High Capacity cDNA Reverse Transcription Kit (Applied Biosciences) on a 96-well thermal cycler. […] Plates were analysed using an ABI Taqman RT-PCR machine, and SDS 2.2 Automation Controller software. […]

Substance: 48048-DC: siNA duplex; sense SEQ ID NO: 61 B GAuAGcAucuuAuAcGAGu TTB; antisense SEQ ID NO: 62 ACUcGuAuAAGAuGcuAucUU (sense GAUAGCAUCUUAUACGAGUTT; antisense ACUCGUAUAAGAUGCUAUCUU; sense: DNA at AGT, 2'-fluoro at CU, [invAb] at 5' end, 3' end, backbone not given here; antisense: sugars from the 5' end rrrfmfmfmmmmfmffmffmm, backbone not given here)
- Collagen secretion (PICP secretion) induced by TGF-β1 [1]: returned the levels of PICP secretion to near basal levels
- Inhibition of upregulation of α-SMA mRNA by TGF-β1 [2]: consistent but not significant knockdown of α-SMA

Substance: 48042-DC: siNA duplex; sense SEQ ID NO: 49 B GAcAuuAAcucAuuAGAcu TTB; antisense SEQ ID NO: 50 AGUcuAAuGAGuuAAuGucUU (sense GACAUUAACUCAUUAGACUTT; antisense AGUCUAAUGAGUUAAUGUCUU; sense: DNA at AGT, 2'-fluoro at CU, [invAb] at 5' end, 3' end, backbone not given here; antisense: sugars from the 5' end rrrffmmfmmmffmmfmffmm, backbone not given here)
- Collagen secretion (PICP secretion) induced by TGF-β1 [1]: returned the levels of PICP secretion to near basal levels
- Inhibition of upregulation of α-SMA mRNA by TGF-β1 [2]: significantly inhibited the upregulation of α-SMA
- α-SMA expression levels relative to untreated cells ([2]; 5 and 10 ng/ml TGF-β1): comparable to untreated cells

— patent US20120016011A1, “RNA Interference Mediated Inhibition of Connective Tissue Growth Factor (CTGF) Gene Expression Using Short Interfering Nucleic Acid (siNA)” (Merck Sharp & Dohme Corp., priority 2009, published 2012)
